Laboratory results from US7705010B2, “Use of minoxidil sulfate as an anti-tumor drug” (Cedars-Sinai Medical Center, priority 2005, dated 2010).
Structures can show the parent of a compound that is named as a salt. Where two headings read alike, the source gives them in different places.

How the values were obtained:
[1] = test system: unmodified GL26 cells; test: GL26 drug cytotoxicity screens; format: cell-based, murine; conditions: drug 125-1000 μM, read-out: EC50 (concentrations giving 50% killing)
Procedure: GL26 drug cytotoxicity (EC50, concentrations giving 50% killing) screens were performed with the results depicted in Table 2.

[2] = test system: RG2 Glioma; test: WST-1 cytotoxic screening, RG2 Glioma; conditions: for EC50: read-out: Effective concentration for 50% cell death (EC50)
Procedure: (§1) Thus, the inventors examined the in vitro effect of several ATP-dependent potassium channel agonists on cell viability in a wide range of tumor and normal cells.
(§2) Table 1 depicts the in vitro effect of KATP channel agonists on cell viability in a range of tumor and normal cells. The cytotoxic screening assay (WST-1 assay; Roche Diagnostics) results shown are the effective KATP channel agonist concentration (μM) required for 50% cell death (EC50) after exposure to the same for 24 hours. Indicated percentages are the percent viable cells remaining after treatment with 1000 μM of KATP channel agonists.

[3] = test system: GL-26 Glioma; test: cells; conditions: read-out: Effective concentration for 50% cell death (EC50)
Procedure: as §1, §2

[4] = test system: U87 human glioma; test: WST-1 cytotoxic screening, U87 Glioma; conditions: for EC50: read-out: Effective concentration for 50% cell death (EC50)
Procedure: as §1, §2

[5] = test system: MDA-231 Breast Cancer; test: WST-1 cytotoxic screening, MDA-231 Breast Cancer; format: cell-based; conditions: read-out: Effective concentration for 50% cell death (EC50)
Procedure: as §1, §2

[6] = test system: CRL5904 NSC Lung Cancer; test: WST-1 cytotoxic screening, CRL5904 NSC Lung Cancer; conditions: for EC50: read-out: Effective concentration for 50% cell death (EC50); for viability at 1000 µM: read-out: percentage of viable cells remaining
Procedure: as §1, §2

[7] = test system: HT-29 human colon cancer; test: WST-1 cytotoxic screening, HT-29 Colon Cancer; conditions: for EC50: read-out: Effective concentration for 50% cell death (EC50)
Procedure: as §1, §2

[8] = test system: HBMVEC Endothelial; test: WST-1 cytotoxic screening, HBMVEC Endothelial; conditions: read-out: Effective concentration for 50% cell death (EC50)
Procedure: as §1, §2

[9] = test system: 9L Glioma; test: WST-1 cytotoxic screening, 9L Glioma; format: cell-based; conditions: for EC50: treatment for 24 hours, read-out: Effective concentration for 50% cell death (EC50)
Procedure: as §1, §2

[10] = test system: C6 rat glioma; test: WST-1 cytotoxic screening, C6 Glioma; conditions: for EC50: 24 h, read-out: Effective concentration for 50% cell death (EC50)
Procedure: as §1, §2

[11] = test system: DNTC-1 Astrocytes; test: WST-1 cytotoxic screening, DNTC-1 Astrocytes; format: cell-based; conditions: Astrocyte, treatment for 24 hours, read-out: Effective concentration for 50% cell death (EC50)
Procedure: as §1, §2

[12] = WST-1 cytotoxic screening, HBMVEC Endothelial; conditions: human, HBMVEC endothelial cells (non-cancer)
Procedure: as §1, §2

[13] = test system: GL26 glioma; test: Survival of mice with intracranial GL26 glioma; format: in vivo; conditions: for survival, C57BL/6 (WT) relative to nu/nu mice: 2.7 mg/kg days 7-9 after GL26 implantation, log-rank; for survival: 2.7 mg/kg i.v. days 7-9 after intracranial GL26 implantation, 2.7 mg/kg
Procedure: FIG. 1 depicts T cell-induced chemosensitization of murine glioma in accordance with an embodiment of the present invention. Fifty thousand (50,000) GL26 tumor cells in […] 1% methylcellulose were implanted i.c. into anesthetized female C57BL/6J (black lines) or nu/nu (gray lines) mice aged 6-8 weeks using a stereotactic rodent frame. Injection was 1 mm posterior and 2.5 mm lateral to the junction of the coronal and saggital sutures (bregma), at a depth of 2 mm. Vaccinated mice received 2, subcutaneous injections of 2×106 tumor lysate-pulsed, irradiated cultured DC2.4 dendritic cells in […] sterile PBS as vaccine on day 3 and 7 post tumor implantation, and a chemotherapeutic drug (dosage: 2.7 mg/kg minoxidil sulfate) was administered on days 7, 8, and 9 post tumor implantation. […] Survival differences were assessed by log-rank statistics.
FIGS. 2a and 2b depicts survival rates of mice treated with minxodil sulfate in accordance with an embodiment of the present invention. Survival of Nude (nu; gray) and C57BL/6 (WT) mice with (solid black) or without (dotted black) vaccination, treated 7-9 days after intracranial GL26 glioma implantation with vehicle (DMSO) or minoxidil sulfate (MS, 2.7 mg/kg in 50 μl, i.v.). Vaccinated mice were injected subcutaneously with […] tumor lysate-pulsed syngeneic DC2.4 dendritic cells 3 and 7 days after GL26 implantation.
GL26 glioma cells were implanted intracranially into T cell-deficient (nude) or syngeneic wild-type (C57BI/6) mice, which were treated with a chemotherapeutic drug alone or with vaccination using GL26 lysate-pulsed DC2.4 dendritic cells. […] (FIG. 1).
Chemosensitivity was modeled by growth of the GL26 glioma in syngeneic C57BL/6 (B6), vaccinated B6, and T cell-deficient nude mice. Tumor implantation was followed by chemotherapeutic drug treatment and/or DC vaccination.

[14] = Homo sapiens, MDA-MB-231, treatment for 24 hours

SMILES: COc1cccc2c1C(=O)c1c(O)c3c(c(O)c1C2=O)C[C@@](O)(C(=O)CO)C[C@@H]3O[C@H]1C[C@H](N)[C@H](O)[C@H](C)O1 [Adriamycin]
- EC50 ([1]; Mus musculus): < 125 µM

SMILES: N.N.O=C([O-])C1(C(=O)[O-])CCC1.[Pt+2] [Carboplatin]
- EC50 [1]: 310 µM

SMILES: CC1(C)Oc2ccc(S(=O)(=O)Nc3ccccc3)cc2[C@@H](N2CCCCC2=O)[C@@H]1O [KCO912]
- EC50 ([2]; RG2 Glioma, treatment for 24 hours): > 1000 µM
- EC50 ([3]; GL-26 Glioma, treatment for 24 hours): > 1000 µM
- EC50 ([4]; U87 Glioma, treatment for 24 hours): > 1000 µM
- EC50 ([5]; treatment for 24 hours): 126 µM
- EC50 ([6]; CRL5904 NSC Lung Cancer, treatment for 24 hours): > 1000 µM
- EC50 ([7]; HT-29 Colon Cancer, treatment for 24 hours): > 1000 µM
- EC50 ([8]; HBMVEC Endothelial, treatment for 24 hours): > 1000 µM

SMILES: CN(Cc1cnc2nc(N)nc(N)c2n1)c1ccc(C(=O)N[C@@H](CCC(=O)O)C(=O)O)cc1 [Methotrexate]
- EC50 ([1]; Mus musculus): > 1000 µM

SMILES: Nc1cc(N2CCCCC2)nc(N)[n+]1OS(=O)(=O)[O-] [Minoxidil Sulfate, minoxidil sulfate]
- EC50 ([2]; Rattus norvegicus, RG2, 24 h): 810 µM
- viability at 1000 µM ([9]; after treatment with 1000 μM, read-out: percentage of viable cells remaining): 51%
- EC50 [9]: > 1000 µM
- effectiveness as a cytotoxic agent ([10]; C6 rat glioma, WST-1 assay): highly effective
- EC50 ([10]; Rattus norvegicus, C6 glioma): 130 µM
- EC50 ([3]; Mus musculus, GL26, 24 h): 595 µM
- EC50 ([4]; Homo sapiens, U-87 MG, 24 h): 308 µM
- effectiveness as a cytotoxic agent ([4]; U87 human glioma, WST-1 assay): highly effective
- EC50 [5, 14]: 930 µM
- EC50 ([6]; 24 h): > 1000 µM
- viability at 1000 µM [6]: 89%
- effectiveness as a cytotoxic agent ([7]; HT-29 human colon cancer, WST-1 assay): highly effective
- EC50 ([7]; Homo sapiens, HT-29, 24 h): 360 µM
- EC50 [11]: 110 µM
- viability at 24 h, 1000 μM [12]: 84%
- EC50 ([8]; 24 h): > 1000 µM
- EC50 ([1]; Mus musculus): 595 µM
- survival, C57BL/6 (WT) relative to nu/nu mice [13]: increased survival
- survival, C57BL/6 (WT) relative to nu/nu mice ([13]; listed as MS): significantly increased
- survival ([13]; T cell-deficient nude (nu/nu) hosts): not in nude hosts
- survival ([13]; T cell-deficient nude (nu/nu) hosts, listed as MS): increased survival only in WT hosts
- survival ([13]; wild-type C57BL/6 hosts, with or without DC vaccination): prolonged survival in B6
- survival ([13]; wild-type C57BL/6 hosts, with or without DC vaccination, listed as MS): increased survival
- survival ([13]; wild-type C57BL/6 hosts, with or without DC vaccination, listed as Minoxidil sulfate): enhanced survival

SMILES: CC(N/C(=N\C#N)Nc1ccncc1)C(C)(C)C (stereo not drawn) [Pinacidil, pinacidil]
- EC50 ([2]; Rattus norvegicus, RG2, 24 h): > 1000 µM
- viability at 1000 µM ([2]; Rattus norvegicus, RG2, read-out: percentage of viable cells remaining): 69%
- EC50 [9]: 790 µM
- EC50 ([10]; Rattus norvegicus, C6 glioma): > 1000 µM
- viability at 1000 µM ([10]; Rattus norvegicus, C6 glioma, read-out: percentage of viable cells remaining): 93%
- EC50 ([3]; Mus musculus, GL26, 24 h): 210 µM
- EC50 ([4]; Homo sapiens, U-87 MG, 24 h): > 1000 µM
- viability at 1000 µM ([4]; Homo sapiens, U-87 MG, read-out: percentage of viable cells remaining): 77%
- EC50 [5, 14]: 220 µM
- EC50 ([6]; 24 h): > 1000 µM
- viability at 1000 µM [6]: 79.5%
- EC50 ([7]; Homo sapiens, HT-29, 24 h): > 1000 µM
- viability at 1000 µM ([7]; Homo sapiens, HT-29, read-out: percentage of viable cells remaining): 74%
- viability at 24 h, 1000 μM [12]: 106%
- EC50 ([8]; 24 h): > 1000 µM
- EC50 ([1]; Mus musculus): 210 µM

SMILES: Cn1nnc2c(C(N)=O)ncn2c1=O [Temodar]
- EC50 ([1]; Mus musculus): > 1000 µM
